The values that follow come from PMC12818745 (ACS Chemical Neuroscience, 2025).

A word on the IC50: it is the concentration at which inhibition is half-maximal. As usually defined, the inhibition is the percentage by which the read-out fell short of the control. One may read the Papp as the rate of passage across a membrane or cell layer, normalised by area and donor concentration. A lower Papp goes with poor permeation.

Read-outs that look alike come from different tables or passages of the source.

In data set [1] the target is eeAChE (Electrophorus electricus AChE) (Electrophorus electricus, UniProt O42275). Briefly: Cholinesterase inhibition assay (modified Ellman's method), eeAChE. In kind it is biochemical. The following applies: for SI eeAChE: ratio eqBChE IC50/eeAChE IC50. From the text:
(§1) Compound series A and B were initially screened for their cholinesterase activity against eeAChE (Electrophorus electricus AChE) and eqBChE (equine serum butyrylcholinesterase), using an adaptation of the Ellman’s method. […]. […] Similarly, replacing the terminal triple bond in 7l with a nitrile group reduced its activity, while replacing the O-propargyl group with an N,N-dipropargyl group in 10 enhanced the inhibition of both enzymes, particularly BChE (Table ). The installation of an additional aryl ring in 7o further improved AChE inhibition, slightly increasing selectivity toward this enzyme. […]. […]. […]. The inhibitory activity of the synthesized compounds toward eeAChE and eqBChE was evaluated spectrophotometrically through a 96-well microplate modified Ellman’s method. The solutions of both enzymes were prepared as 0.025 U/mL in phosphate buffer at pH 7, from stock solutions of 5.05 U/mL and 7.50 U/mL, respectively. The stock solutions for the target compounds (0.1 M) were prepared in dimethyl sulfoxide (DMSO). […] The reaction mixture was prepared with 100 μL of the enzyme (eeAChE or eqBChE) and 50 μL of the test compound (or DMSO/water, not exceeding 0.2% of DMSO in the wells; i.e blank samples). After 5 min of the preincubation period at 37 °C, 50 μL of ATChI or BTChI and 50 μL of DTNB were added to each well, thus initiating the enzymatic reaction. The absorbance values were measured at 415 nm, for a total of 7.5 min, at every 2.5 min, using a microplate reader (Synergy multimode reader; BioTek). […]. All experiments were performed in triplicate.
Background: In Ellman's method for cholinesterases, released thiocholine reacts with DTNB.

Data set [2] deals with T1, eqBChE (equine serum butyrylcholinesterase) (Equus caballus, UniProt P81908).
T1 construct: eqBChE (equine serum butyrylcholinesterase); from tissue; host or cells: equine serum
T1 sequence (P81908 whole entry): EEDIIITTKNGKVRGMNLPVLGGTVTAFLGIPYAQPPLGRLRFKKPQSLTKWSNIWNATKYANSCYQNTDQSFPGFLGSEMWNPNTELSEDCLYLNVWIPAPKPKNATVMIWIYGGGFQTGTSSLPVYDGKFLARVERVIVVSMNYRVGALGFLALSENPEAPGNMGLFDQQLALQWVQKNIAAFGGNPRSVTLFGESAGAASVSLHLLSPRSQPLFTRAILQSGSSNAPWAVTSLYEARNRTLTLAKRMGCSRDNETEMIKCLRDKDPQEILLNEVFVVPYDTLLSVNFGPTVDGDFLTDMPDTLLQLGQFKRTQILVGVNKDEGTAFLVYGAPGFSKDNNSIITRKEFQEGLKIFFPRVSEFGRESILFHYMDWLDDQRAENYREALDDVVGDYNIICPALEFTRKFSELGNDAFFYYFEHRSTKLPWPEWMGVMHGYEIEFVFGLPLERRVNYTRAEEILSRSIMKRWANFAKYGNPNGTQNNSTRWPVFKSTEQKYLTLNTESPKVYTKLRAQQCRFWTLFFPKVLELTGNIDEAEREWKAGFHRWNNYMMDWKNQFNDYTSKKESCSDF
Put plainly: Cholinesterase inhibition assay (modified Ellman's method), eqBChE. In kind it is biochemical.
Source text: as §1

The target in a further data set is T2, Aβ42 aggregation (Homo sapiens, UniProt P05067).
T2 construct: expressed in transfected cells; host or cells: E. coli BL21 (DE3), pET vector
T2 sequence (P05067 672-713): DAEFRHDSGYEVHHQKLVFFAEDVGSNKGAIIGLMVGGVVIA
Put plainly: Thioflavin S assay of Aβ42 aggregation in E. coli cells overexpressing Aβ42. The format is cell-based, Escherichia coli. To be noted: read-out: Aβ42 inhibition %. The procedure:
(§2) The antiaggregating profiles of both series A and B were evaluated using a fluorescence Thioflavin S (ThS) assay in cellulo, which monitors ThS fluorescence in the presence of β-sheet-rich structures, such as Aβ and tau protein aggregates. This method, based on recombinant Escherichia coli (E. coli) bacteria overexpressing insoluble aggregates, offers a simple and cost-effective approach to model aggregation processes in mammalian systems and has been validated for use in drug discovery studies. , Compounds were tested at a screening concentration of 50 μM for their ability to inhibit Aβ42 aggregation. The results, summarized in Table , reveal distinct antiaggregating profiles between series A and B, which are once again influenced by their structural differences.
42 Amino acid Aβ42 was cloned and overexpressed in E. coli BL21 (DE3) competent cells using the pET vector harboring the DNA sequence of Aβ42. Due to the addition of the initiation codon ATG preceding genes, the resulting overexpressed peptide contained an additional methionine residue at its N-terminus. For the preparation of overnight cultures, a colony of BL21 (DE3) cells carrying the plasmid for expression was inoculated in 10 mL of M9 minimal medium supplemented with 50 μg mL^–1 kanamycin at 37 °C. Subsequently, a 1:500 dilution of the overnight culture was added to fresh M9 minimal medium containing 50 μg mL^–1 kanamycin and 25 μM ThS. The bacterial culture was then incubated at 37 °C with agitation at 250 rpm. Upon reaching an OD600 of 0.6, 980 μL of the culture was transferred into 1.5 mL Eppendorf tubes, each containing 10 μL of the compound to be tested dissolved in DMSO and 10 μL of 100 mM isopropyl 1-thio-β-D-galactopyranoside (IPTG) or, alternatively, 10 μL of water for the noninduced controls. The final compound concentration was adjusted to […]. The samples were allowed to grow overnight at 37 °C with agitation at 1400 rpm using a Thermomixer (Eppendorf). Negative controls, representing maximum amyloid presence, utilized free DMSO.
(§3) ThS (T1892) and all other chemical reagents were purchased from Sigma (St. Louis, MO). Stock solutions of ThS (250 μM) were prepared using doubly distilled water purified via a Milli-Q system (Millipore). For the fluorescence assay, ThS spectra were recorded utilizing an AmincoBowman series 2 luminescence spectrophotometer (Aminco-Bowman AB2, SLM Aminco, Rochester, NY) within the range of 460 to 600 nm at a temperature of 25 °C. The excitation wavelength employed was 445 nm, with slit widths set at 4 nm. The emission at 485 nm, corresponding to the ThS peak observed in the presence of amyloids, was recorded. To standardize ThS fluorescence relative to bacterial concentration in both in vitro and cell-based assays, the OD600 was determined using a Shimadzu UV-2401 PC UV–vis spectrophotometer. Fluorescence normalization was executed by setting the ThS fluorescence of bacterial cells expressing the peptide or protein in the absence of the drug as 100%, while that of bacterial cells not expressing the peptide or protein was established as 0%.

Another data set can be described thus: in vitro. The following applies: for Papp at 2.5 h: PAMPA, pH 7.4; for Prediction (penetration into the CNS): class from PAMPA-BBB P e. The procedure:
To assess BBB permeability, a parallel artificial membrane permeability assay (PAMPA)-BBB was performed, which predicts passive BBB permeability using a brain lipid porcine membrane.
The prediction of the brain penetration was evaluated using a PAMPA-BBB. […] Next, 100 μL of these stock solutions were added to a solution of 1400 μL of EtOH and 3500 μL of PBS at pH 7.4, to reach 30% of EtOH concentration in the experiment. These solutions were filtered, using Filter PDVF membrane units (diameter 30 mm, pore size 0.45 μm, from Symta). After this, the acceptor 96-well microplate (Multiscreen, catalogue no. MAMCS9610, from Millipore) was filled with 180 μL of PBS/EtOH (70/30). […] After 5 min, 180 μL of each compound solution was added. 1–2 mg of each selected compound was dissolved in 1500 μL of EtOH and 3500 μL of PBS at pH 7.4, filtered, and then added to the donor 96-well plate to determine their ability to cross the brain barrier. After this, the donor plate was carefully put on the acceptor plate to form a “sandwich” and incubated for 2.5 h at 25 °C. During this period, the compounds diffused from the donor plate through the brain lipid membrane into the acceptor plate. Afterward, the donor plate was removed. A 96-well plate UV reader (Thermoscientific, Multiskan spectrum) was used to determine the concentration of compounds and commercial drugs in the acceptor and donor wells. Every sample was analyzed at three to five wavelengths, in three wells, and in two independent runs. […] Ten quality control compounds (previously mentioned) of known BBB permeability were included in each experiment to validate the analysis set.

The target in a further data set is T3, Tau protein aggregation (Homo sapiens, UniProt P10636).
T3 construct: For the cloning and overexpression of full-length tau protein; expressed in transfected cells; host or cells: E. coli BL21 (DE3) carrying pTARA and pRKT42
T3 sequence (P10636 other isoform, or with tags, fused parts or gaps): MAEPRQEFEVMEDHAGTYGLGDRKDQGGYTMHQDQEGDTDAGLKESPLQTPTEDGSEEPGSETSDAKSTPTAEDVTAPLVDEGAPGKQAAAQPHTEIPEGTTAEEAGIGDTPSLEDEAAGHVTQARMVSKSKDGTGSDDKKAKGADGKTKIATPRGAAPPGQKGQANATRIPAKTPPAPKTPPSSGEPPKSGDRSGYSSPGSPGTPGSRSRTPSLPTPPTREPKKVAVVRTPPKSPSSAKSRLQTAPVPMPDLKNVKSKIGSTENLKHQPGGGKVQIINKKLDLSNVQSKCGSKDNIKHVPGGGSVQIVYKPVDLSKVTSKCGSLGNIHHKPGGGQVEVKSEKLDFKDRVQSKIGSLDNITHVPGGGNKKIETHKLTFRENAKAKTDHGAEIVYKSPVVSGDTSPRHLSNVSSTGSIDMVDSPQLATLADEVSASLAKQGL
Briefly: Thioflavin S assay of tau protein aggregation in E. coli cells overexpressing tau. The format is cell-based, Escherichia coli. To be noted: read-out: Tau inhibition %. The procedure: as §2
This strategic extension aimed to validate the chromeno[3,4-b]-xanthone scaffold for related aggregation targets, considering the structural and pathological similarities between Aβ and tau aggregation processes. […]. […] Nevertheless, it is important to interpret the results cautiously, as the inability of certain compounds to cross bacterial membranes, may have underestimated their true inhibitory activity in the assay.
For the cloning and overexpression of full-length tau protein, E. coli BL21 (DE3) competent cells were transformed first with the pTARA vector containing the RNA polymerase gene of phage T7 (T7RP), controlled by the PBAD promoter. Subsequently, E. coli BL21(DE3) competent cells containing pTARA were transformed with the pRKT42 vector encoding four repeats of tau protein in two inserts. Similar to the procedure for Aβ42, overnight cultures were prepared by inoculating colonies of BL21 (DE3) cells bearing the plasmids in M9 medium supplemented with 0.5% glucose, 50 μg mL^–1 ampicillin, and 12.5 μg mL^–1 chloramphenicol at 37 °C. Upon induction, a 1:500 dilution of the overnight culture was added to fresh M9 minimal medium containing 0.5% glucose, 50 μg mL^–1 ampicillin, 12.5 μg mL^–1 chloramphenicol, and 25 μM ThS. The subsequent steps mirrored those for the Aβ assay, including the addition of the compound to be tested dissolved in DMSO and 10 μL of 25% arabinose or, alternatively, 10 μL of water for the noninduced controls, with a final compound concentration of […]. Negative controls for tau overexpression utilized free DMSO.
as §3

The mark [3] stands for this setting: mean ± SEM, n = 3, n.a = nonactive, IC50 determined only if inhibition higher than 50% at 20 μM.

eeAChE (Electrophorus electricus AChE), sequence (O42275 24-633): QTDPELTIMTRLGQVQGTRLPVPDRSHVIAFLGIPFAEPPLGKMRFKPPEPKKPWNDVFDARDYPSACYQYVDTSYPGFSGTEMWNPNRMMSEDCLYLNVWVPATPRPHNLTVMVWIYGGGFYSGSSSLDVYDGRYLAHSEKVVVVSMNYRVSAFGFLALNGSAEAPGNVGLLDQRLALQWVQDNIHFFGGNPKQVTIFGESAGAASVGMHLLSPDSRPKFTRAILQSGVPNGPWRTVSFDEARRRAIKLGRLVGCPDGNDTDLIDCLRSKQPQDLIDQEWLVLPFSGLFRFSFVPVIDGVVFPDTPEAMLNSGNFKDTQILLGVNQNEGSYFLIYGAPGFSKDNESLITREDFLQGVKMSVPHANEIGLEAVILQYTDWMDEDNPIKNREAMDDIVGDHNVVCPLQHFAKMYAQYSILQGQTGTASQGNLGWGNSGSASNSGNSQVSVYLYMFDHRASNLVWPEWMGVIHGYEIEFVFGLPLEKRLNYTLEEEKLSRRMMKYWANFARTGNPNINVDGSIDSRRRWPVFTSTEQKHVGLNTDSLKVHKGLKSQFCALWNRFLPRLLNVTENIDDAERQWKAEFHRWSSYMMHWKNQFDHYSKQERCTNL

As to `COc1ccc2c(c1)-c1cc3oc4cc(OC)ccc4c(=O)c3cc1CO2` [Compound 11l, 2,11-Dimethoxy-6H,8H-chromeno[3,4-b]xanthen-8-one], in data set [1], the IC50 stood at 4.8 ± 0.5 µM and the “SI eeAChE” value stood at 1.88. Moreover, in data set [2], the IC50 amounted to 9 ± 0.5 µM. The inhibition at 50 µM on Aβ42 aggregation worked out at 40 ± 5.1%.
The corresponding values for `O=c1c2ccccc2oc2cc3c(cc12)COc1ccc(OC(F)(F)F)cc1-3` [Compound 11h, 2-(Trifluoromethoxy)-6H,8H-chromeno[3,4-b]xanthen-8-one] are 4 ± 1.2 µM, 1.55, 6.2 ± 0.7 µM and 41 ± 6.4%.
For the compound `COc1ccc2c(c1)-c1cc3oc4cccc(OC)c4c(=O)c3cc1CO2` [Compound 11m, 2,9-Dimethoxy-6H,8H-chromeno[3,4-b]xanthen-8-one], the IC50 in data set [2] is 7.3 ± 0.4 µM. Also, the inhibition at 50 µM at Aβ42 aggregation came to 30 ± 6.6%.
With `COc1ccc2c(c1)-c1cc3oc4ccccc4c(=O)c3cc1CO2` [Compound 11f, 2-Methoxy-6H,8H-chromeno[3,4-b]xanthen-8-one], in data set [1], the IC50 came to 6.9 ± 1.5 µM and the “SI eeAChE” value was 0.88. Also, the IC50 in data set [2] was determined as 6.1 ± 0.5 µM. In addition, at Aβ42 aggregation, the inhibition at 50 µM was 36 ± 7.8%.
Turning to `CN(C)CCCN1c2ccccc2Sc2ccccc21` [Promazine, reference compound], the apparent permeability coefficient (Papp) at 2.5 h in the data set “in vitro” is 15.4 ± 0.91 ×10⁻⁶ cm/s.
Take `COc1ccc2c(=O)c3cc4c(cc3oc2c1OC)-c1ccccc1OC4` [Compound 11d, 11,12-Dimethoxy-6H,8H-chromeno[3,4-b]xanthen-8-one]: the IC50 in data set [2] turned out to be 7.1 ± 0.1 µM. Moreover, at Aβ42 aggregation, the inhibition at 50 µM amounted to 40 ± 6.4%.
Turning to `COc1cc(OC)c2c(=O)c3cc4c(cc3oc2c1)-c1ccccc1OC4` [Compound 11e, 9,11-Dimethoxy-6H,8H-chromeno[3,4-b]xanthen-8-one], in data set [2], the IC50 amounted to 9.4 ± 0.2 µM. For the same compound, the inhibition at 50 µM on Aβ42 aggregation worked out at 36 ± 4.4%.
As to `CNCCCN1c2ccccc2CCc2ccccc21` [Desipramine, reference compound], the Papp at 2.5 h in the data set “in vitro” (pig) came to 15.6 ± 1.78 ×10⁻⁶ cm/s.
Consider `O=c1c2ccccc2oc2cc3c(cc12)COc1ccc(F)cc1-3` [Compound 11i, 2-Fluoro-6H,8H-chromeno[3,4-b]xanthen-8-one], for which the inhibition at 50 µM at Aβ42 aggregation was found to be 47 ± 8.4%; on Tau protein aggregation, 52 ± 6.3%.
On to `COc1ccc2c(=O)c3cc4c(cc3oc2c1)-c1cc(F)ccc1OC4` [Compound 11q, 2-Fluoro-11-methoxy-6H,8H-chromeno[3,4-b]xanthen-8-one], for which the IC50 in data set [1] stood at 4.3 ± 1.5 µM. Moreover, the inhibition at 50 µM on Aβ42 aggregation stood at 50 ± 6.7%; on Tau protein aggregation it was 55 ± 5.9%. The “Prediction (penetration into the CNS)” value in the data set “in vitro” was “CNS+ (High BBB permeation predicted (CNS+) P e > 3.93)”. Also, the Papp at 2.5 h in the data set “in vitro” (pig) turned out to be 6.04 ± 1.99 ×10⁻⁶ cm/s.
Consider `O=c1c2ccccc2oc2cc3c(cc12)COc1c(Br)cc(Cl)cc1-3` [Compound 11k, 4-Bromo-2-chloro-6H,8H-chromeno[3,4-b]xanthen-8-one], for which the IC50 in data set [1] turned out to be 4.2 ± 0.9 µM; in data set [2], 6.2 ± 1 µM. In addition, the “SI eeAChE” value in data set [1] was found to be 1.48. Also, the values for the inhibition at 50 µM at Aβ42 aggregation and on Tau protein aggregation were 46 ± 3.7% and 52 ± 7.2%, respectively. Also, the “Prediction (penetration into the CNS)” value in “in vitro” was “CNS± (Uncertain BBB permeation (CNS±) 3.93 > P e > 1.82)”. For the same compound, the Papp at 2.5 h in the data set “in vitro” (pig) stood at 2.3 ± 1.11 ×10⁻⁶ cm/s.
On to `COc1ccc2c(=O)c3cc4c(cc3oc2c1)-c1c(ccc2ccccc12)OC4` [Compound 12b], for which the inhibition at 50 µM on Aβ42 aggregation is 54 ± 6.2%; on Tau protein aggregation, 57 ± 7%.
For the compound `C#CCOc1ccccc1/C=C/c1cc(=O)c2ccc(OC)c(OC)c2o1` [Compound 7d, (E)-7,8-Dimethoxy-2-[2-(prop-2-yn-1-yloxy)styryl]-4H-chromen-4-one], in data set [1] (setting [3]), the IC50 turned out to be 2.4 ± 0.4 µM. Moreover, the inhibition at 50 µM on Aβ42 aggregation came to 28 ± 1.7%.
On to `CN1C(C(=O)Nc2ccccn2)=C(O)c2ccccc2S1(=O)=O` [Piroxicam, reference compound], for which, in the data set “in vitro” (pig), the Papp at 2.5 h came to 0.19 ± 0.02 ×10⁻⁶ cm/s.
Same read-out and setting: the result for `CCn1cc(C(=O)O)c(=O)c2cc(F)c(N3CCNCC3)nc21` [Enoxacin, reference compound] reads 0.15 ± 0.15 ×10⁻⁶ cm/s.
For `C#CCOc1ccccc1/C=C/c1cc(=O)c2ccccc2o1` [Compound 7a, (E)-2-[2-(Prop-2-yn-1-yloxy)styryl]-4H-chromen-4-one], the IC50 in data set [1] (setting [3]) came out at 9.5 ± 0.3 µM. Besides, on Aβ42 aggregation, the inhibition at 50 µM came out at 38 ± 6.2%.
